Entries after “also recorded” stand apart in the source; their conditions may differ. A value given as a limit tells only on which side of the number the result lay.

Type in all cases: cell-based
The subject of one assay is TDP-43 aggregation. The assay can be described thus: TDP-43 aggregation assay in SY5Y TDP-43WT cells (high content imaging). The following applies: Homo sapiens, tetracycline induction 24 hrs, 1 hour compound pre-treatment, sodium arsenite 23 hrs, 8-point dose curve, percentage of cells with TDP-43 aggregates, read-out: IC50, Inhibition of TDP-43 Aggregation. The procedure, abridged:
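Tetracycline-inducible eGFP-tagged wild-type human TDP-43 in SH-SY5Y cells, induced 24 h ([…]), compound pre-treated 1 h, then sodium arsenite […] for 23 h. Fixed cells imaged; percentage of DAPI-counted cells with aggregates gives IC50 from 8-point curves.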

The next assay concerns insoluble TDP-43. The assay can be described thus: Cell fractionation and immunoblot of TDP-43 in MG-132 challenged human motor neurons. As to conditions: 500 nM Compound 183 with MG-132 1 μM. How it is done: Cell culture and differentiation of iPS Cells into motor neurons. Pluripotent stem cells were grown with mTeSR Plus medium on tissue culture dishes coated with Matrigel, and maintained in 5% CO2 incubators at 37° C. Stem cells were passaged as small aggregates of cells after 1 mM EDTA treatment. […] was added to the cultures for 16-24 h after dissociation to prevent cell death. The iP11NA iPS cell line was acquired from ALSTEM. This cell line was generated from pre-made footprint-free human iPS cells with DOX inducible Ngn2 that has been stably integrated into the human AAVS1 “Safe Harbor” site, and provides a convenient means to differentiate human iPS cells into neurons rapidly and efficiently. Motor neuron differentiation was achieved using a modified 5-day strategy. […]
For analysis of TDP-43 cellular distribution, d14 motor neurons were lysed with Thermo Subcellular Protein Fractionation Kit for cultured cells and processed according to the manufacturer's instructions. […] Fluorescent secondary antibodies were used for band detection and the Kaleidoscope precision plus protein ladder for size estimation. iBright FL1500 imaging system and software were used to quantitate protein band signal. […]
A general note: A western blot detects proteins with antibodies after separation by electrophoresis.

The next assay concerns TDP-43 splicing function. Nature of the assay: qRT-PCR of TDP-43 sentinel transcripts (STMN2, ELAVL3, PFKP) in MG-132 challenged human motor neurons. How it is done: Cell culture and differentiation of iPS Cells into motor neurons. Pluripotent stem cells were grown with mTeSR Plus medium on tissue culture dishes coated with Matrigel, and maintained in 5% CO2 incubators at 37° C. Stem cells were passaged as small aggregates of cells after 1 mM EDTA treatment. […] was added to the cultures for 16-24 h after dissociation to prevent cell death. The iP11NA iPS cell line was acquired from ALSTEM. This cell line was generated from pre-made footprint-free human iPS cells with DOX inducible Ngn2 that has been stably integrated into the human AAVS1 “Safe Harbor” site, and provides a convenient means to differentiate human iPS cells into neurons rapidly and efficiently. Motor neuron differentiation was achieved using a modified 5-day strategy.
This approach relies on neural induction through small molecule inhibition of SMAD signaling, accelerated neural differentiation through forced Ngn2 expression, and motor neuron patterning through the activation of retinoic acid and Sonic Hedgehog signaling pathways. In brief, pluripotent stem cells were dissociated to single cells using accutase and plated at a density of 80,000 cells per cm^2 on Matrigel-coated culture plates with mTeSR Plus medium supplemented with ROCK inhibitor (10 μM Y-27632, ATCC). When cells reached 50% confluency, medium was changed to differentiation medium BrainPhys medium supplemented with N2-A, SM1, […]. This time point was defined as day 0 (d0) of motor neuron differentiation. Treatment with small molecules was carried out as follows: 2 μg/mL Doxycyline, 10 μM SB431542, 100 nM LDN-193189, […] and 1 μM Smoothend agonist and 10 uM Edu. The full list of materials and their descriptions is included below in Table 5.
Total RNA was isolated from d14 motor neurons for qRT-PCR assays using TaqMan™ Fast Advanced Cells-to-CT™ Kit according to manufacturer's instructions. 7500 neurons per well of 96-well culture were routinely used for processing. qRT-PCR was then performed using multiplex assays from IDT using PrimeTime™ Gene Expression Master Mix (IDT) on a QuantStudio6Pro system. Quantitative levels for all genes assayed were normalized using GAPDH expression. […] Primers and probes used in this study are in Table 5.
To this end, we first examined whether proteasome inhibition, which triggers TDP-43 nuclear depletion, also leads to splicing defects associated with TDP-43 loss-of function. For comparison, we also treated human motor neurons with puromycin, which recruits TDP-43 to stress granules in the cytoplasm. We chose to analyze several transcripts that have relevant connections to ALS biology including STMN26,12, PFKP19, and ELAVL320,21. We used quantitative reverse transcription-polymerase chain reaction (qRT-PCR) to validate that in MG-132-treated motor neurons these transcripts were altered like in ALS patients.
Using this method, we next obtained RNA from independent motor neuron biological replicates after proteasome inhibition and Compound 183 treatment to determined by qRT-PCR the relative abundance of these transcripts. […] A dose-responsive effect was further tested for Compound 183 using qRT-PCR in this model. […] Collectively, the data support the notion that Compound 183 promotes TDP-43 nuclear function under proteotoxic stress.

Where [1] appears, read: Compound 183 500 nM with MG-132 1 μM, relative to MG-132 control.
Where [2] appears, read: by 500 nM, MG-132 1 μM challenged motor neurons.

Broadly, the IC50 is the concentration that inhibits the measured activity by half. For the compound `Cc1cc(-c2ccc(C3CCN(C(C)C)CC3)cc2)sc1C(=O)N1CC[C@H](N)C1` [Compound 183, (S)-(3-aminopyrrolidin-1-yl)(5-(4-(1-isopropylpiperidin-4-yl)phenyl)-3-methylthiophen-2-yl)methanone], in the assay with TDP-43 aggregation, the IC50 is under 500 nM. Besides, the “TDP-43 level in the nuclear fraction (immunoblot)” value in the assay with insoluble TDP-43 is recorded as “the levels of TDP-43 in the nucleus were maintained; also recorded: restoring nuclear TDP-43 localization”. Besides, in the assay with TDP-43 splicing function (setting [1]), the “cryptic splicing events of STMN2, ELAVL3 and PFKP (qRT-PCR)” value was “nearly complete inhibition for all three cryptic splicing events”; the “splicing of the normal transcripts, TDP-43 splicing function (qRT-PCR)” value is given as “increased splicing of the normal transcripts; also recorded: restoring splicing function of TDP-43”. In addition, the “restoration of normal STMN2 and ELAVL3 levels (qRT-PCR, dose response)” value in the assay with TDP-43 splicing function (MG-132 1 μM challenged motor neurons) was “modest in its ability to restore normal STMN2 and ELAVL3 levels”. The “maintenance of TDP-43 splicing function, dose response (qRT-PCR)” value with TDP-43 splicing function (MG-132 1 μM challenged motor neurons, effective concentration range for most transcripts) is listed as “restoring TDP-43 splicing function in dose dependent manner”. In the assay on TDP-43 splicing function (setting [2]), the “restoration of normal splicing of PFKP (qRT-PCR, dose response)” value is listed as “fully restored normal splicing of PFKP” and the “suppression of cryptic splicing, all transcripts tested (qRT-PCR, dose response)” value is on record as “strong suppression of cryptic splicing”.

Values taken from patent US20260258025A1, “INHIBITORS OF TDP-43 AND TAU AGGREGATION” (Aquinnah Pharmaceuticals, inc., priority 2023, published 2026).
